Data: US10253002B2, “Compounds and methods of treating infections” (Neoculi Pty Ltd., priority 2013, dated 2019)
In brackets after ≈: the same amount, converted by molar mass. Several values for one entry are separate records, joined by “and”; a condition that tells them apart may be missing. Equal values may be shown once. Marks after values point to notes of the source that are not given here.

What was measured:
[1] = tested on: MRSA; assay: Broth microdilution MIC, Example 7 (NCL812 and analogues); format: cell-based, Staphylococcus aureus; settings: for activity against MRSA among analogues: MIC testing, two MRSA strains
Method in brief: (§1)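 Isolates were tested in duplicate, with a third run if replicates differed by more than one two-fold dilution; inoculum purity was checked on sheep blood agar.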

[2] = tested on: VRE; assay: as above; format: cell-based, Enterococcus spp.; settings: for activity against VRE among analogues: MIC testing, two VRE strains
Method in brief: as §1

[3] = tested on: Escherichia coli; assay: as above; format: cell-based; settings: 24 hours
[4] = tested on: Pseudomonas aeruginosa; assay: as above; format: cell-based; settings: 24 hours
[5] = Bioassay ranking of the analogues tested; settings: M + R (MRSA and VRE combined)
[6] = isolate MRSA 1, 1st and 2nd replicate rows
[7] = isolate MRSA 2, 1st and 2nd replicate rows
[8] = isolate VRE 1, 1st and 2nd replicate rows
[9] = isolate VRE 2, 1st and 2nd replicate rows

Row | SMILES | activity against MRSA among analogues [1] | MRSA ([1]; bioassay ranking, MRSA) [µg/mL] | MIC (μg/ml) at 24 hours, MRSA 1 [1, 6] | MIC (μg/ml) at 24 hours, MRSA 2 [1, 7] | activity against VRE among analogues [2] | VRE ([2]; bioassay ranking, VRE) [µg/mL] | MIC (μg/ml) at 24 hours, VRE 1 [2, 8] | MIC (μg/ml) at 24 hours, VRE 2 [2, 9] | MIC (μg/ml) at 24 hours, E. coli ([3]; 1st and 2nd replicate rows) [µg/mL] | MIC (μg/ml) at 24 hours, P. aeruginosa ([4]; 1st and 2nd replicate rows) | M + R [5] [µg/mL] | MIC (μg/ml) at 24 hours, MRSA 1 ([1]; MRSA 1, duplicate lines per compound) [µg/mL] | MIC (μg/ml) at 24 hours, MRSA 2 ([1]; MRSA 2, duplicate lines per compound) [µg/mL] | MIC (μg/ml) at 24 hours, VRE 1 ([2]; VRE 1, duplicate lines per compound) | MIC (μg/ml) at 24 hours, VRE 2 ([2]; VRE 2, duplicate lines per compound) | MIC (μg/ml) at 24 hours, E. coli ([3]; E. coli, duplicate lines per compound) [µg/mL] | MIC (μg/ml) at 24 hours, P. aeruginosa ([4]; P. aeruginosa, duplicate lines per compound) [µg/mL] | MIC ([1]; Staphylococcus aureus, MRSA, bioassay ranking, MRSA, read-out: MRSA) [µg/mL] | MIC ([2]; Enterococcus, VRE, bioassay ranking, VRE, read-out: VRE) [µg/mL]
1 | Cl.N=C(N/N=C/c1ccc(F)cc1)N/N=C/c1ccc(F)cc1 [NCL021] | greatest activity | 16 | 16 µg/mL | 16 µg/mL | greatest activity | 8 | 8 µg/mL | 8 µg/mL | >128 | >128 µg/mL | 12 |  |  |  |  |  |  |  | 
2 | Cl.N=C(NN=Cc1cccc(F)c1)NN=Cc1cccc(F)c1 [NCL023] | greatest activity | 16 | 16 µg/mL | 16 µg/mL | greatest activity | 24 | 32 µg/mL | 16 µg/mL | >128 | >128 µg/mL | 20 |  |  |  |  |  |  |  | 
3 | COc1cccc(C=NNC(=N)NN=Cc2cccc(OC)c2)c1.Cl [NCL029] | greatest activity | 32 | 32 µg/mL | 32 µg/mL | greatest activity | 32 | 32 µg/mL | 32 µg/mL | >128 | >128 µg/mL | 32 |  |  |  |  |  |  |  | 
4 | Cl.N=C(N/N=C/c1ccc(C(F)(F)F)cc1)N/N=C/c1ccc(C(F)(F)F)cc1 [NCL035] | greatest activity | 16 | 16 µg/mL | 16 µg/mL | greatest activity | 5 | 8 µg/mL and 4 µg/mL | 4 µg/mL | >128 | >128 µg/mL | 10.5 |  |  |  |  |  |  |  | 
5 | Cc1ccc(/C=N/NC(=N)N/N=C/c2ccc(C)cc2)cc1.Cl [NCL038] | greatest activity | 8 | 8** μg/ml | 8** μg/ml | greatest activity | 10 | 8** μg/ml and 16** μg/ml | 8** μg/ml | >128 | >128 µg/mL | 9 |  |  |  |  |  |  |  | 
6 | Cc1ccccc1C=NNC(=N)NN=Cc1ccccc1C.Cl [NCL039] | greatest activity |  | 32 µg/mL and 64 µg/mL | 32 µg/mL | greatest activity | 20 | 32 µg/mL | 8 µg/mL | >128 | >128 µg/mL and >188 µg/mL | 30 |  |  |  |  |  |  |  | 
7 | Cc1cccc(C=NNC(=N)NN=Cc2cccc(C)c2)c1.Cl [NCL040] | greatest activity | 8 | 8 µg/mL | 8 µg/mL | greatest activity | 8 | 8 µg/mL | 8 µg/mL | >128 | >128 µg/mL | 8 |  |  |  |  |  |  |  | 
8 | Cl.N=C(N/N=C/c1cccc(Cl)c1)N/N=C/c1cccc(Cl)c1 [NCL054] | greatest activity | 3 | 4 µg/mL and 2 µg/mL | 2 µg/mL and 4 µg/mL | greatest activity | 4 | 4 µg/mL | 4 µg/mL | >128 | >128 µg/mL | 3.5 |  |  |  |  |  |  |  | 
9 | Cl.N=C(N/N=C/c1ccc(Cl)cc1)N/N=C/c1ccc(Cl)cc1Cl [NCL074] | greatest activity | 16 |  |  | greatest activity | 3.75 |  |  |  |  | 9.875 | 16 | 16 | 2 µg/mL and 1 µg/mL | 8 µg/mL and 4 µg/mL | >128 | >128 |  | 
10 | CC(=NNC(=N)NN=C(C)c1ccc(Cl)cc1O)c1ccc(Cl)cc1O.Cl [NCL173] | greatest activity | 16 |  |  | greatest activity | 18 |  |  |  |  | 17 |  |  |  |  |  |  |  | 
11 | Cl.N=C(NN=Cc1ccc(Cl)cc1O)NN=Cc1ccc(Cl)cc1O [NCL174] | greatest activity | 32 |  |  | greatest activity | 18 |  |  |  |  | 25 |  |  |  |  |  |  |  | 
12 | Cl.N=C(NN=C(CO)c1ccc(Cl)cc1)NN=C(CO)c1ccc(Cl)cc1 [NCL177] | greatest activity | 8 |  |  | greatest activity | 6 |  |  |  |  | 7 |  |  |  |  |  |  |  | 
13 | Nc1nc(N/N=C/c2ccc(Cl)cc2)cc(N/N=C/c2ccc(Cl)cc2)n1 [NCL179, 4,6-bis(2-((E)-4-chlorobenzylidene)hydrazinyl)pyrimidin-2-amine] | greatest activity |  |  |  | greatest activity |  |  |  |  |  | 3 |  |  |  |  |  |  | 2 (≈ 5 µM) | 4 (≈ 9.99 µM)
14 | Cl.[H]/N=C(/N)NN=C(CNN)c1ccc(Cl)cc1 [NCL190] | greatest activity | 24 |  |  | greatest activity | 32 |  |  |  |  | 28 |  |  |  |  |  |  |  | 
